Assays:
Assay type in all cases: in vivo
[1] = system: submerged direct sown paddy (RD-23); assay: Phytotoxicity, spray treatment at 1.5 to 3.0 leaf-stage (Test Example 3); conditions: spray at 1.5 to 3.0 leaf-stage, 4 weeks later, RD-23
Protocol: (§1) Carrier: 5 parts by weight of acetone
(§2) Surfactant: one part by weight of benzyloxy polyglycol ether.
(§3) Above described carrier and surfactant are mixed with one part by weight of the active compound ((a) ingredient and (b) ingredient) and the resulting preparation is then diluted with water to obtain given amount of the test drug (the formulation).
(§4) In a greenhouse, seeds of rice (var.: Nipponbare and RD23) and weeds (Echinochloa oryzicola Vasing, Echinochloa cruss-galli, Leptochloa chinensis, Cyperus difformis L., Cyperus iria L., annual broad-leaved weeds (Monochoria vaginalis Presl, Lindernia procumbens Philcox, Lindernia dubia L. Penn., Rotala indica Koehne, Elatine triandra Schk, Ammannia multiflora Roxb. and the like)) were sown in a 500 cm^2 pot filled with paddy field soil and covered with soil. Water was added to the pot (a depth of 0 cm) to be a wet condition, and each test plant was grown in the greenhouse to 1.5 to 3.0 leaf-stage, after then a prescribed, diluted solution of the formulation of each active compound and each herbicidal compound in the table were separately or simultaneously sprayed over the pots with plants. At 3 days after the treatment, the water depth of 3 cm was maintained, and 4 weeks later, herbicidal effect was then examined. In the assessment of the herbicidal effect and the phytotoxicity, 100% refers to complete death and 0% refers to no effect or no phytotoxicity.

[2] = system: submerged direct sown paddy (Nipponbare); assay: as above; conditions: spray at 1.5 to 3.0 leaf-stage, 4 weeks later
Protocol: as §1, §2, §3, §4

[3] = system: Cyperus difformis L.; assay: Weed control by spray treatment at 1.5 to 3.0 leaf-stage (Test Example 3); conditions: spray at 1.5 to 3.0 leaf-stage, 4 weeks later
Protocol: as §1, §2, §3, §4

[4] = system: Leptochloa chinensis; assay: as above; conditions: spray at 1.5 to 3.0 leaf-stage, 4 weeks later
Protocol: as §1, §2, §3, §4

[5] = system: Monochoria vaginalis Presl; assay: as above; conditions: spray at 1.5 to 3.0 leaf-stage, 4 weeks later
Protocol: as §1, §2, §3, §4

[6] = system: Echinochloa oryzicola Vasing; assay: as above; conditions: spray at 1.5 to 3.0 leaf-stage, 4 weeks later
Protocol: as §1, §2, §3, §4

[7] = system: Echinochloa cruss-galli; assay: as above; conditions: spray at 1.5 to 3.0 leaf-stage, 4 weeks later
Protocol: as §1, §2, §3, §4

[8] = system: annual broad-leaved weeds; assay: as above; conditions: spray at 1.5 to 3.0 leaf-stage, 4 weeks later
Protocol: as §1, §2, §3, §4

[9] = system: Cyperus iria L.; assay: as above; conditions: spray at 1.5 to 3.0 leaf-stage, 4 weeks later
Protocol: as §1, §2, §3, §4

[10] = system: transplanted rice; assay: Phytotoxicity, flooded paddy field, treatment at 1 leaf-stage (Test Example 1); conditions: treatment at 1 leaf-stage, after 4 weeks
Protocol: as §1, §2, §3
(§5) In a greenhouse, seeds or tubers of Echinochloa, Scirpus juncoides Roxburgh, Monochoria vaginalis Presl, annual broad-leaved weeds (Lindernia procumbens Philcox, Lindernia dubia L. Penn., Rotala indica Koehne, Elatine triandra Schk, Ammannia multiflora Roxb.), Cyperus serotinus Rottboel and Sagittaria pygmaea Miq. were inoculated in a 500 cm^2 pot filled with paddy field soil. After 2 leaf-stage of rice were transplanted, water was poured to a depth of about 3 cm. At 1.0 leaf-stage of Echinochloa oryzicola Vasing, a prescribed, diluted solution of the formulation of each active compound and each herbicidal compound in the table was separately or simultaneously applied to the surface of water. After the treatment, the water depth of 3 cm was maintained, and herbicidal effect was examined after 4 weeks. In the assessment of the herbicidal effect and the phytotoxicity, 100% refers to complete death and 0% refers to no effect or no phytotoxicity.

[11] = system: transplanted rice; assay: Phytotoxicity, flooded paddy field, treatment at 3 leaf-stage (Test Example 2)
Protocol: as §1, §2, §3
as §5, with “Echinochloa, Cyperus difformis L.,” for “Echinochloa,”, “3.0” for “1.0”, “Echinochloa,” for “Echinochloa oryzicola Vasing,”

[12] = system: Scirpus juncoides Roxburgh; assay: Weed control, flooded paddy field, treatment at 1 leaf-stage (Test Example 1); conditions: after 4 weeks
Protocol: as §1, §2, §3, §5

[13] = system: Monochoria vaginalis Presl; assay: as above; conditions: after 4 weeks
Protocol: as §1, §2, §3, §5

[14] = system: Sagittaria pygmaea Miq.; assay: as above; conditions: after 4 weeks
Protocol: as §1, §2, §3, §5

[15] = system: Echinochloa; assay: as above; conditions: after 4 weeks
Protocol: as §1, §2, §3, §5

[16] = system: annual broad-leaved weeds; assay: as above; conditions: after 4 weeks
Protocol: as §1, §2, §3, §5

[17] = system: Cyperus serotinus Rottboel; assay: as above; conditions: after 4 weeks
Protocol: as §1, §2, §3, §5

[18] = system: Scirpus juncoides Roxburgh; assay: Weed control, flooded paddy field, treatment at 3 leaf-stage (Test Example 2); conditions: after 4 weeks
Protocol: as §1, §2, §3
as §5, with “Echinochloa, Cyperus difformis L.,” for “Echinochloa,”, “3.0” for “1.0”, “Echinochloa,” for “Echinochloa oryzicola Vasing,”

[19] = system: Monochoria vaginalis Presl; assay: as above; conditions: after 4 weeks
Protocol: as §1, §2, §3
as §5, with “Echinochloa, Cyperus difformis L.,” for “Echinochloa,”, “3.0” for “1.0”, “Echinochloa,” for “Echinochloa oryzicola Vasing,”

[20] = system: Sagittaria pygmaea Miq.; assay: as above; conditions: after 4 weeks
Protocol: as §1, §2, §3
as §5, with “Echinochloa, Cyperus difformis L.,” for “Echinochloa,”, “3.0” for “1.0”, “Echinochloa,” for “Echinochloa oryzicola Vasing,”

[21] = system: Echinochloa; assay: as above; conditions: after 4 weeks
Protocol: as §1, §2, §3
as §5, with “Echinochloa, Cyperus difformis L.,” for “Echinochloa,”, “3.0” for “1.0”, “Echinochloa,” for “Echinochloa oryzicola Vasing,”

[22] = system: annual broad-leaved weeds; assay: as above; conditions: after 4 weeks
Protocol: as §1, §2, §3
as §5, with “Echinochloa, Cyperus difformis L.,” for “Echinochloa,”, “3.0” for “1.0”, “Echinochloa,” for “Echinochloa oryzicola Vasing,”

[23] = system: Cyperus serotinus Rottboel; assay: as above; conditions: after 4 weeks
Protocol: as §1, §2, §3
as §5, with “Echinochloa, Cyperus difformis L.,” for “Echinochloa,”, “3.0” for “1.0”, “Echinochloa,” for “Echinochloa oryzicola Vasing,”

SMILES	Phytotoxicity (%) ORYSW*^2 ([1]; 30 g ai/ha) [%]	Phytotoxicity (%) ORYSW*^2 ([1]; 50 g ai/ha) [%]	Phytotoxicity (%) ORYSW*^1 ([2]; 30 g ai/ha) [%]	Phytotoxicity (%) ORYSW*^1 ([2]; 50 g ai/ha) [%]	Herbicidal effect (%) CYPDI ([3]; 30 g ai/ha) [%]	Herbicidal effect (%) CYPDI ([3]; 50 g ai/ha) [%]	Herbicidal effect (%) LEFCH ([4]; 30 g ai/ha) [%]	Herbicidal effect (%) LEFCH ([4]; 50 g ai/ha) [%]	Herbicidal effect (%) MOOVP ([5]; 30 g ai/ha) [%]	Herbicidal effect (%) MOOVP ([5]; 50 g ai/ha) [%]	Herbicidal effect (%) ECHOR ([6]; 30 g ai/ha) [%]	Herbicidal effect (%) ECHOR ([6]; 50 g ai/ha) [%]	Herbicidal effect (%) ECHCG ([7]; 30 g ai/ha) [%]	Herbicidal effect (%) ECHCG ([7]; 50 g ai/ha) [%]	Herbicidal effect (%) BBBBB ([8]; 30 g ai/ha) [%]	Herbicidal effect (%) BBBBB ([8]; 50 g ai/ha) [%]	Herbicidal effect (%) CYPIR ([9]; 30 g ai/ha) [%]	Herbicidal effect (%) CYPIR ([9]; 50 g ai/ha) [%]	further results
COc1nc(OC)nc(C(O)c2cccc(Cl)c2N(C)S(=O)(=O)C(F)F)n1 (stereo not shown) [(a-4)]	0	0	0	5	100	100	50	50	25	25	100	100	100	100	65	75	100	100	
Cc1ccc(C(=O)COc2c(C(=O)c3ccc(Cl)c(C)c3Cl)c(C)nn2C)cc1 [(b-3), benzofenap]																			Phytotoxicity (%) ORYSP ([10]; 800 g ai/ha): 0%; Phytotoxicity (%) ORYSP ([11]; rice, in vivo, 4 weeks): 0%; Herbicidal effect (%) SCPSS ([12]; 800 g ai/ha): 70%; Herbicidal effect (%) MOOVP ([13]; 800 g ai/ha): 80%; Herbicidal effect (%) SAGPY ([14]; 800 g ai/ha): 70%; Herbicidal effect (%) ECHSS ([15]; 800 g ai/ha): 80%; Herbicidal effect (%) BBBBB ([16]; 800 g ai/ha): 100%; Herbicidal effect (%) CYPSEE ([17]; 800 g ai/ha): 20%; Herbicidal effect (%) SCPSS ([18]; 800 g ai/ha): 0%; Herbicidal effect (%) MOOVP ([19]; 800 g ai/ha): 50%; Herbicidal effect (%) SAGPY ([20]; 800 g ai/ha): 60%; Herbicidal effect (%) ECHSS ([21]; 800 g ai/ha): 10%; Herbicidal effect (%) BBBBB ([22]; 800 g ai/ha): 70%; Herbicidal effect (%) CYPSEE ([23]; 800 g ai/ha): 0%
CCN(C(=O)n1nnn(-c2ccccc2Cl)c1=O)C1CCCCC1 [(b-6), fentrazamide]																			Phytotoxicity (%) ORYSP ([10]; 300 g ai/ha): 0%; Phytotoxicity (%) ORYSP ([11]; 300 g ai/ha, treatment at 3 leaf-stage, after 4 weeks): 0%; Herbicidal effect (%) SCPSS ([12]; 300 g ai/ha): 95%; Herbicidal effect (%) MOOVP ([13]; 300 g ai/ha): 95%; Herbicidal effect (%) SAGPY ([14]; 300 g ai/ha): 50%; Herbicidal effect (%) ECHSS ([15]; 300 g ai/ha): 95%; Herbicidal effect (%) BBBBB ([16]; 300 g ai/ha): 85%; Herbicidal effect (%) CYPSEE ([17]; 300 g ai/ha): 95%; Herbicidal effect (%) SCPSS ([18]; 300 g ai/ha): 80%; Herbicidal effect (%) MOOVP ([19]; 300 g ai/ha): 55%; Herbicidal effect (%) SAGPY ([20]; 300 g ai/ha): 50%; Herbicidal effect (%) ECHSS ([21]; 300 g ai/ha): 69%; Herbicidal effect (%) BBBBB ([22]; 300 g ai/ha): 55%; Herbicidal effect (%) CYPSEE ([23]; 300 g ai/ha): 75%
COc1nc(OC)nc(C(=O)c2cccc(Cl)c2N(C)S(=O)(=O)C(F)F)n1 [(a-2)]	5	10	5	10	100	100	65	65	40	65	100	100	100	100	70	85	100	100	

Reference: patent US20080200337A1, “Mixed herbicide compositions for paddy field” (Bayer CropScience, priority 2007, published 2008)
